For data set [1], the system named is serotonine (5HT) uptake. The data set can be described thus: Inhibition of serotonine (5HT) uptake in vitro in impure brain synaptosomes. Type of data set: biochemical. Particulars: synaptosomes from entire brain of female rat 19 to 21 days old, 14C-5HT 10^-7 M, 37° C., 5 minutes; read-out: I.C. 50, 50% inhibiting concentration of 14C-5HT uptake. Here is the method:
The inhibition of serotonine (5HT) uptake was measured in impure synaptosomes prepared from the entire brain of a female rat 19 to 21 days old using the technique of Kannengiesser et al [Biochemical Pharmacology, Vol. 22, (1973) p. 73].

For data set [2], the system named is effects of monoamine oxidase inhibitor (nialamide). The data set can be described thus: Potentiation of effects of monoamine oxidase inhibitor (nialamide) in mice, actimetric measurements. In kind it is in vivo. Further details: key: Potentiation of the effects of nial amide for the tested product was expressed in increasing number of + sign for a determined dose in mg/kg. Particulars: nialamide 100 mg/kg i.p. 30 minutes before, actimetric values every 30 minutes for 6 hours. An excerpt:
The administration of a monoamine oxidase inhibitor to mice induces a hyperactive movement of the animals which is able to be potentiated by an antidepressant. […] Potentiation of the effects of nial amide for the tested product was expressed in increasing number of + sign for a determined dose in mg/kg.

Data set [3] can be described thus: Acute toxicity, intraperitoneal. Particulars: mouse, in vivo, ip; mice, i.p., determined 48 hours later; read-out: DL50 dose which kills 50% of mice. Here is the method:
The DL50 dose which kills 50% of mice after intraperitoneal administration of the tested compound was determined 48 hours later and the DL50 for the compounds is reported in Table III.

Data set [4] deals with effects of L-dopa. As to the kind of experiment: Potentiation of effects of L-dopa in mice pretreated with iproniazide. Particulars: Mus musculus, ip, one hour before L-dopa 100 mg/kg i.p.; male mice, iproniazide 75 mg/kg i.p. 18 hours before; read-out: ED50 dose which potentiates by 50% the L-dopa effects. Type of data set: in vivo. As to the method:
The administration of L-dopa to mice pretreated 18 hours previously with iproniazide produced certain number of symptoms; muscular hypertonicity, hyperactivity, agitation crying, aggressiveness, salivation and exophthalmy. The intensity of these effects is potentiated by administration of an antidepressant one hour before the administration of L-dopa. Male mice received intraperitoneally 75 mg/kg of iproniazide 18 hours before the start of the test and the tested product was intraperitoneally administered in aqueous solution in increasing doses. One hour later, L-dopa was intraperitoneally administered at a dose of 100 mg/kg and the different symptoms were observed 15 and 30 minutes later. They were evaluated on a scale of 0 to 3 for each animal and the totals for each dose were determined.

The text below walks through data of patent publication US4117164A, “Aminomethyl-benzocycloheptenes and method of use” (Roussel Uclaf, priority 1976, dated 1978).

Usually ED50 stands for the dose at which the effect has come halfway, by size or by number of responders.

Structures can show the parent of a compound that is named as a salt.

Regarding `CNCC1C=Cc2cc([N+](=O)[O-])ccc2CC1` (stereo not drawn) [Example 3, N-methyl-2-nitro-6,7-dihydro [5H] benzocycloheptene-7-methanamine hydrochloride], the IC50 in data set [1] was determined as 590 nM. Further, the “Potentiation of Nialamide” value in data set [2] (20 mg/kg i.p.) was “+”. For the same molecule, in data set [3], the LD50 at 48 h amounted to 100 mg/kg. Also, the ED50 in data set [4] was 20 mg/kg.
For the molecule `CNCC1C=Cc2cc(N)ccc2CC1` (stereo not drawn) [Example 4, di-(N-methyl-2-amino-6,7-dihydro [5H]benzocycloheptene-7-methanamine) fumarate], in data set [1], the IC50 is 6800 nM. Also, the LD50 at 48 h in data set [3] came out at 100 mg/kg.
On to `CNCC1C=Cc2cc(OC)ccc2CC1.Cl` (stereo not drawn) [Example 5, N-methyl-2-methoxy-6,7-dihydro [5H] benzocycloheptene-7-methanamine hydrochloride], for which, in data set [1], the IC50 worked out at 1400 nM. Moreover, in data set [3], the LD50 at 48 h was 100 mg/kg. The ED50 in data set [4] turned out to be 50 mg/kg.
Consider `CNCC1C=Cc2cc(O)ccc2CC1.Cl` (stereo not drawn) [Example 6, 7-methylaminomethyl-6,7-dihydro [5H] benzocycloheptene-2-ol-hydrochloride], for which the IC50 in data set [1] turned out to be 980 nM. Further, the “Potentiation of Nialamide” value in data set [2] (5 mg/kg i.p.) and in data set [2] (20 mg/kg i.p.) was “+” throughout. Besides, the LD50 at 48 h in data set [3] amounted to 75 mg/kg. In addition, the ED50 in data set [4] is 20 mg/kg.
In the case of `CN(C)CC1C=Cc2cc([N+](=O)[O-])ccc2CC1` (stereo not drawn) [1 - 2], in data set [1], the IC50 is 630 nM. Moreover, the “Potentiation of Nialamide” value in data set [2] (5 mg/kg i.p.) and in data set [2] (20 mg/kg i.p.) was “+” each time. Also, in data set [3], the LD50 at 48 h came to 150 mg/kg.
